{"source": "patent US6875451B2", "about": "“Compositions and methods for the treatment of primary and metastatic neoplastic diseases using arsenic compounds” (PolaRx Biopharmaceuticals Inc., priority 1997, dated 2005)", "origin": "cited, not measured here", "test_system": "cell lines representative of chronic B-cell leukemia", "conditions": "cited from earlier work", "data": [{"smiles": "Nc1nc(N)nc(Nc2ccc([As]3SCC(CO)S3)cc2)n1", "note": "(stereo not shown) [melarsoprol]", "values": [{"measurement": "apoptosis", "value": "induce apoptosis"}]}]}
